Consider 25 compounds from patent publication US20230312605A1, “PYRROLO[2,1-F][1,2,4]TRIAZINES AND PREPARATION AND USES THEREOF” (BioSplice Therapeutics, Inc., priority 2021, published 2023).

Assay [1] deals with recombinant DYRK1A kinase (Homo sapiens (Human), UniProt Q13627). Nature of the assay: DYRK1A kinase assay (Ser/Thr 18 peptide Z-lyte FRET assay). The format is biochemical. Particulars: recombinant DYRK1A 0.25 µg/mL, ATP 15 µM, Ser/Thr peptide 18 4 µM, one hour at room temperature; table head prints EC50, method says IC50. The procedure, abridged: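 Recombinant human DYRK1A (0.25 µg/mL) with 15 µM ATP and 4 µM Ser/Thr 18 peptide was incubated 1 h at room temperature with compound (11-point, 10 µM top), in duplicate. Z-lyte FRET read-out (coumarin/fluorescein emission ratio) was converted to percent phosphorylation; IC50 from non-linear regression.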

For assay [2], the system named is Tau phosphorylation at Thr212 (pThr212) in HEK293T cells transfected with DYRK1A and MAPT. Nature of the assay: phosphoTau (Thr212) AlphaLISA tau phosphorylation cell assay. The conditions noted are these: HEK-293T, HEK293T cells transiently transfected with human DYRK1A and MAPT, compound treatment 18-24 hours, read-out: pTau (Thr212) EC50. The format is cell-based. The procedure:
Representative compounds were screened using the assay procedure for tau phosphorylation activity described below.
HEK293T cells (ATCC, CRL3216) cultured in DMEM (Thermo Fisher Scientific, 10566024) supplemented with 10% FBS (Corning, 35-011-CV) and Penicillin/Streptomycin (Thermo Fisher Scientific, 15140163) were seeded in a 75 cm^2 flask at 8.1 × 10^6 cells/flask. The HEK293T cells were then transiently transfected with 5 µg DYRK1A (NM_001396) human untagged clone (OriGene, SC314641) and 2.5 µg MAPT (441 a.a. Tau gene) (NM_005910) human untagged clone (OriGene, TP313312) using Lipofectamine 3000 (Thermo Fisher Scientific, L30000015) and incubated for 20-30 hours in a humidified incubator at 37° C. and 5% CO^2. Post-incubation, HEK293T cells transfected with the DYRK1A and MAPT expression vectors were harvested and seeded in BioCoat poly-D lysine coated 96-well plates (Corning, 354461) at 3 × 10^4 cells/well.
The above synthesized compounds were screened using the cell assay procedure to assess decreased Tau phosphorylation at Thr212 (pThr212) described below.
Each compound was dissolved in DMSO (Sigma-Aldrich, D8418-100 mL) as a 10 mM stock. 10 mM stocks were serially diluted 1:3, 10-point dose-response curve and added to the cells with a final concentration ranging from 20 µM to 1.1 nM. Cells were treated with compounds in duplicate and incubated for 18-24 hours in a humidified incubator at 37° C. and 5% CO^2.
Following the overnight compound treatment, cells were lysed with 1X Alpha Surefire Ultra Lysis Buffer (Perkin Elmer, ALSU-LB-100ML) complemented with 1X Halt Phosphatase Inhibitor Cocktail (Thermo Fisher Scientific, 78427) and 1X Halt Protease Inhibitor Cocktail (Thermo Fisher Scientific, 78438). Lysates were spun down at 12,000 g for 10 min to remove any cellular debris and 5 µL of lysates were dispensed into a 384-well Opti-Plate (Perkin Elmer, 6007290) for the measurement of Tau phosphorylation in the phosphoTau (Thr212) AlphaLISA assay. Donor antibody, biotinylated HT7Tau (Thermo Fisher Scientific, MN1000B), and acceptor antibody, pThr212Tau (Thermo Fisher Scientific, 44740G) were both added to the cell lysates at a final concentration of 3 nM and incubated for 1 hour at room temperature. Following incubation of the lysates with the donor and acceptor antibodies, anti-rabbit IgG(Fc specific) AlphaLISA acceptor beads (Perkin Elmer, AL104C) were added at a 10 ug/mL final concentration and incubated for 1 hour at room temperature protected from light. Lastly, AlphaScreen streptavidin donor beads (PerkinElmer, 6760002) were added at 40 ug/mL final concentration and incubated for 1 hour at room temperature protected from light. Plates were read at Ex= […], and Em=615 nm on the EnVision Multilabel Plate Reader (Perkin Elmer)
phospho-Tau (Thr212) AlphaLISA signal was used to plot, draw the curve fitting, and determine each compound’s EC50 in Prism (GraphPad).
Background: In Alpha technology, singlet oxygen from a donor bead excites a nearby acceptor bead.

In the case of `CO[C@H]1CC[C@@H](Nc2ncc3c(-c4cnc5nccn5c4)ccn3n2)CC1` [Compound 259, 5-(Imidazo[1,2-a]pyrimidin-6-yl)-N-(cis-4-methoxycyclohexyl)pyrrolo[2,1-f][1,2,4]triazin-2-amine], the concentration for a half-maximal effect (EC50) in assay [1] was 7 nM; in assay [2] it was 150 nM. Consider `CCC(=O)N1CCC(Nc2ncc3c(-c4ccc5nc(C)n(CC(F)F)c5n4)ccn3n2)CC1` [Compound 1858, 1-(4-((5-(3-(2,2-Difluoroethyl)-2-methyl-3H-imidazo[4,5-b]pyridin-5-yl)pyrrolo[2,1-f][1,2,4]triazin-2-yl)amino)piperidin-1-yl)propan-1-one], for which the EC50 in assay [1] turned out to be 7 nM. As to `CC(C)(F)CNc1ncc2c(-c3ccc4nccnc4c3)ccn2n1` [Compound 1352, N-(2-Fluoro-2-methylpropyl)-5-(quinoxalin-6-yl)pyrrolo[2,1-f][1,2,4]triazin-2-amine], the EC50 in assay [1] stood at 27 nM.

As for `c1cn2cc(-c3ccn4nc(NCC5CC5)ncc34)ccc2n1` [Compound 16, N-(Cyclopropylmethyl)-5-(imidazo[1,2-a]pyridin-6-yl)pyrrolo[2,1-f][1,2,4] triazin-2-amine], the EC50 in assay [1] turned out to be 48 nM.

Take `O[C@H]1CC[C@@H](Nc2ncc3c(-c4ccc5ncccc5c4)ccn3n2)CC1` [Compound 1322, cis-4-((5-(Quinolin-6-yl)pyrrolo[2,1-f][1,2,4]triazin-2-yl)amino)cyclohexan-1-ol]: the EC50 in assay [1] was 393 nM. Take `CC(C)CN1CC2(CC(Nc3ncc4c(-c5cnc6nccn6c5)ccn4n3)C2)C1` [Compound 1756, 5-(Imidazo[1,2-a]pyrimidin-6-yl)-N-(2-isobutyl-2-azaspiro[3.3]heptan-6-yl)pyrrolo [2,1-f][1,2,4]triazin-2-amine]: in assay [1], the EC50 was 18 nM. Same read-out and setting: as for `Cc1nc2ncc(-c3ccn4nc(N[C@H]5CC[C@@](C)(O)CC5)ncc34)nc2n1CC(F)F` [Compound 1974, cis-4-((5-(1-(2,2-difluoroethyl)-2-methyl-1H-imidazo[4,5-b]pyrazin-6-yl)pyrrolo[2,1-f][1,2,4]triazin-2-yl)amino)-1-methylcyclohexan-1-ol], the figure is 2 nM. Take `FC(F)(F)O[C@H]1CC[C@@H](Nc2ncc3c(-c4cnc5nccn5c4)ccn3n2)CC1` [Compound 1780, 5-(Imidazo[1,2-a]pyrimidin-6-yl)-N-(cis-4-(trifluoromethoxy)cyclohexyl) pyrrolo[2,1-f][1,2,4]triazin-2-amine]: the EC50 in assay [1] came to 7 nM.

On to `CN1CCC(Nc2ncc3c(-c4cnc5ncccc5c4)ccn3n2)CC1` [Compound 1557, N-(1 -Methylpiperidin-4-yl)-5-(1,8-naphthyridin-3-yl)pyrrolo [2,1-f] [1,2,4] triazin-2-amine], for which the EC50 in assay [1] was 18 nM. Still for that read-out and setting: under `O[C@H]1CC[C@@H](Nc2ncc3c(-c4cnc5ncccc5c4)ccn3n2)CC1` [Compound 1535, cis-4-((5-(1.8-Naphthyridin-3-yl)pyrrolo[2,1-f][1,2,4]triazin-2-yl)amino) cyclohexan-1-ol] stands 7 nM; under `CC(C)OCCNc1ncc2c(-c3ccc4nccn4c3)ccn2n1` [Compound 11, 5-(Imidazo[1,2-a]pyridin-6-yl)-N-(2-isopropoxyethyl)pyrrolo[2,1-f][1,2,4] triazin-2-amine], 116 nM. Take `Cc1nc2ccc(-c3ccn4nc(N[C@@H]5CN(C)C[C@@H]5F)ncc34)nc2n1CC(F)F` [Compound 1900]: the EC50 in assay [1] stood at 5 nM.

In the case of `Cc1nc2ncc(-c3ccn4nc(NC5CCC(F)(F)CC5)ncc34)cc2n1CC(F)F` [Compound 682, N-(4,4-Difluorocyclohexyl)-5-(1-(2,2-difluoroethyl)-2-methyl-1H-imidazo[4,5-b]pyridin-6-yl)pyrrolo[2,1-f] [1,2,4]triazin-2-amine], the EC50 in assay [1] turned out to be 4 nM. Still for that read-out and setting: as for `Cc1nc2ccc(-c3ccn4nc(NC5CCN(C(=O)[C@@H]6CC6(F)F)CC5)ncc34)nc2n1CC(F)F` [Compound 1917, (S)-(2,2-Difluorocyclopropyl)(4-((5-(3-(2,2-difluoroethyl)-2-methyl-3H-imidazo[4,5-b]pyridin-5-yl)pyrrolo[2,1-f] [1,2,4]triazin-2-yl)amino)piperidin-1-yl)methanone], the figure is 9 nM; as for `Cc1nc2ccc(-c3ccn4nc(N[C@@H]5CCOC[C@H]5O)ncc34)nc2n1CC(F)F` [Compound 1866, (3S,4R)-4-((5-(3-(2,2-Difluoroethyl)-2-methyl-3H-imidazo[4,5-b]pyridin-5-yl)pyrrolo[2,1-f][1,2,4]triazin-2-yl)amino)tetrahydro-2H-pyran-3-ol], 33 nM. As to `Cc1cnc2ncc(-c3ccn4nc(NCC(C)(C)F)ncc34)cn12` [Compound 358, N-(2-Fluoro-2-methylpropyl)-5-(3-methylimidazo[1,2-a]pyrimidin-6-yl) pyrrolo[2,1-f] [1,2,4]triazin-2-amine], the EC50 in assay [1] is 25 nM. Take `Cc1nc2ccc(-c3ccn4nc(N[C@@H]5CCN(CC(C)C)C[C@@H]5F)ncc34)nc2n1CC(F)F` [Compound 1908, 5-(3-(2,2-Difluoroethyl)-2-methyl-3H-imidazo[4,5-b]pyridin-5-yl)-N-((3S,4R)-3-fluoro-1-isobutylpiperidin-4-yl)pyrrolo[2,1-f] [1,2,4]triazin-2-amine]: the EC50 in assay [1] amounted to 7 nM. Consider `COC[C@@H](C)Nc1ncc2c(-c3cnc4nccn4c3)ccn2n1` [Compound 223, (R)-5-(Imidazo[1,2-a]pyrimidin-6-yl)-N-(1-methoxypropan-2-yl)pyrrolo[2,1-f][1,2,4]triazin-2-amine], for which, in assay [1], the EC50 amounted to 101 nM. Consider `CC(=O)N1CC[C@H](Nc2ncc3c(-c4ccc5nc(C)n(CC(F)F)c5n4)ccn3n2)[C@H](F)C1` [Compound 1952, 1-((3R,4S)-4-((5-(3-(2,2-Difluoroethyl)-2-methyl-3H-imidazo[4,5-b]pyridin-5-yl)pyrrolo[2,1-f] [1,2,4]triazin-2-yl)amino)-3-fluoropiperidin-1-yl)ethan-1-one], for which the EC50 in assay [1] came out at 4 nM. For the compound `Cc1nc2ccc(-c3ccn4nc(N[C@H]5CC[C@@H](CN6CCN(C)CC6)CC5)ncc34)nc2n1CC(F)F` [Compound 1841, 5-(3-(2,2-Difluoroethyl)-2-methyl-3H-imidazo[4,5-b]pyridin-5-yl)-N-(cis-4-((4-methylpiperazin-1-yl)methyl)cyclohexyl)pyrrolo[2,1-f][1,2,4]triazin-2-amine], in assay [1], the EC50 turned out to be 6 nM.

Take `COCCO[C@H]1CC[C@H](Nc2ncc3c(-c4cnc5ncccc5c4)ccn3n2)CC1` [Compound 1544, N-(trans-4-(2-Methoxyethoxy)cyclohexyl)-5-(1,8-naphthyridin-3-yl)pyrrolo [2,1-f][1,2,4]triazin-2-amine]: the concentration for a half-maximal effect (EC50) in assay [1] came out at 5 nM. On to `CN1CCC(Nc2ncc3c(-c4ccc5nccn5c4)ccn3n2)CC1` [Compound 66, 5-(Imidazo[1,2-a]pyridin-6-yl)-N-(1-methylpiperidin-4-yl)pyrrolo[2,1-f] [1,2,4]triazin-2-amine], for which the EC50 in assay [1] was found to be 264 nM. On to `Cc1nc2ccc(-c3ccn4nc(NC5CCN(CCF)CC5)ncc34)nc2n1CC(F)F` [Compound 1849], for which the EC50 in assay [1] came to 7 nM. For the compound `CC(=O)N[C@]1(C)C[C@@H](Nc2ncc3c(-c4ccc5ncccc5c4)ccn3n2)C1` [Compound 1980], the EC50 in assay [1] was found to be 1 nM.

On to `CCO[C@H]1CC[C@@H](Nc2ncc3c(-c4ccc5nc(C)n(CC(F)F)c5n4)ccn3n2)CC1` [Compound 1115, N-(cis-4-Ethoxycyclohexyl)-5-(3-(2,2-difluoroethyl)-2-methyl-3H-imidazo [4,5-b]pyridin-5-yl)pyrrolo[2,1-f][1,2,4]triazin-2-amine], for which, in assay [1], the EC50 came out at 3 nM.

What is called EC50 is the concentration needed to bring the measured effect to its halfway point.
